This passage reports IC50 results from ChEMBL document CHEMBL1127188, “Phenylphosphonate monoester analogs of cocaine. Potential haptens for the generation of catalytic antibodies” (Bioorg Med Chem Lett, 1993).

For the experiment, the species on record is Mus musculus. As to the kind of experiment: Compound was tested for its ability to inhibit mAb (monoclonal antibody) binding to immobilized ova-10d; inhibited the binding of seven of nine mAbs to immobilized ova-10d, A - The IC50 of these seven mAb ranged from 15 to 350 uM. The class given is functional, organism-based.

SMILES strings stand for the structures.

In the case of `COC(=O)C1C(OP(=O)(O)c2ccccc2)CC2CCC1N2C` (stereo unspecified), the IC50 result is given as “A”.
